Test [1] has as its target T1, PRMT5-MEP50 enzyme (Homo sapiens, UniProt O14744).
T1 construct: One virus expresses full length human PRMT5 with Flag-tag at N-terminus; Flag (N); purchased Charles River (Argenta); host or cells: insect cells (Sf9), baculovirus co-infection
Kind of test: In vitro assay 1b: PRMT5-MEP50 high throughput mass spectrometer assay (SAH formation), 1.25 nM enzyme. The test is classed as biochemical. The source says: (§1) Experimental Procedures In Vitro Assay (Assay 1a and 1b)
(§2) PRMT5-MEP50 enzyme was purchased from Charles River (Argenta). The enzyme complex was produced in insect cells (Sf9) infected simultaneously with two baculoviruses. One virus expresses full length human PRMT5 with Flag-tag at N-terminus, the second virus expresses full length MEP50 with His6-TEV cleavage at N-terminus. The protein was affinity purified using anti-Flag (M2) beads eluted with 3×FLAG peptide, followed by His-Select eluted with 0.5M imidazole. Eluted protein was then dialysed against tris-buffered saline (TBS) (pH 8.0) containing 20% glycerol and 3 mM dithiothreitol (DTT).
(§3) Full-length untagged human recombinant histone H2A (residues 1-130, Genbank Accession #NM_021052, MW=14.1 kDa) expressed in E. coli was purchased from Reaction Biology Corporation, Cat #HMT-11-146. Reagents used for making reaction buffer or stopping reaction were purchased including Tris base (Sigma Cat #T-1503), NaCl (Sigma Cat #RGF-3270), MgCl2 (Sigma Cat #M0250), DTT (Invitrogen Cat #15508-013) and Formic Acid (Riedel deHaen, Cat #33015)
(§4) PRMT5 catalyzes the sequential methylations of the terminal nitrogen atoms on the guanidine groups of arginine residues within proteins using co-substrate S-adenosyl-L-methionine (AdoMet, SAM), forming mono-methyl (MMA), syrmmetric-dimethyl arginine (sDMA) and S-adenosyl-L-homocysteine (AdoHcy, SAH). The enzyme activity was determined by following the product SAH formation using high throughput mass spectrometry (Agilent Rapidfire 300 System coupled to a Sciex 4000 series QTrap® triple-quad MS/MS). The reaction buffer was 20 mM Tris-HCl, pH 8.5, 50 mM NaCl, 5 mM MgCl2 and 1 mM DTT. The reaction activity was stopped using 1% formic acid (final concentration).
(§5) The IC50 Studies were performed using eleven point dosing series made for each compound by serially diluted 1:2 in dimethyl sulfoxide (DMSO), with point 12 being a DMSO control. Compounds were first spotted to plates, and followed by addition of 2 μM SAM and 0.6 μM H2A (histone H2A) solution mixture. The same volume of enzyme solution was added to initiate the enzymatic reactions. The final concentrations of the reaction are at 1 μM SAM, 0.3 μM H2A and 10 nM enzyme (assay 1a) or or 1.25 nM enzyme (assay 1b). The reaction was incubated at 30° C. for 60 minutes (min) when 10 nM enzyme was used and for 120 min when 1.25 nM enzyme was used. Subsequently, the reaction was quenched by addition of formic acid to a final concentration of 1%. The inhibitions of SAH formation in the presence of compounds were calculated as a percentage of the control relative to the uninhibited reaction as a function of inhibitor concentration. The data were fit as follows: Y=Bottom+(Top−Bottom)/(1+10^((log IC50−X)*h))
(§6) where IC50 is the inhibitor concentration (same unit as X) at 50% inhibition and h is the Hill slope. Y is percent of inhibition, X is log of compound concentration. Bottom and Top are the plateaus in same units as Y.

The subject of test [2] is nuclear symmetric Arginine dimethylation in A549 cells. The experiment in a line: PD assay (assay 2): inhibition of nuclear symmetric Arginine dimethylation (SYM10 immunostaining) in A549 cells. In kind it is cell-based. Particulars: Homo sapiens, 48 h incubation, SYM10 antibody, averaged values, read-out: pIC50 Assay 2 (converted). Here is the method: Experimental Procedure PD Assay (Assay 2)
A549 cells (ATCC, Cat #CCL-185) were cultured in Dulbecco's Modified Eagle's Medium (DMEM) (Sigma, Cat #D5796), supplemented with 10% Fetal Calf Serum (FCS) (HyClone™, Cat #SV30160.03), 100 mM Sodium Pyruvate (Sigma, Cat #S8636), 200 mM L-Glutamine (Sigma, Cat #G7513) and 50 mg/mL Gentamycing (Gibco, Cat #15750-037).
Reagents used for buffers were purchased: Dulbecco's phosphate buffered saline (DPBS) without Ca/Mg (Sigma, Cat #D8537), phosphate buffered saline (PBS) 10× (Roche, Cat #11 666 789 001), Formalin solution 10% (Sigma, HT50-1-128-4L), Methanol 100% (Sigma, Cat #32213-2.5L), Triton X-100 (Acros, Cat #215680010), Bovine Serum Albumin (BSA) (Sigma, Cat #A2153), Alexa fluor 488 goat anti-rabbit antibody (Life Technologies, Cat #A11034), HCS CellMask Deep Red Stain (Life Technologies, Cat #H32721), Hoechst Stain (Life Technologies, Cat #33258), Anti-dimethyl-Arginine, sym (SYM10) antibody (Millipore, 07-412).
Cells were plated at 400 cells/40 μL/well in 384 well black μplates clear bottom (Perkin Elmer) and overnight incubated at 37° C., 5% CO2. The IC50 Studies were performed using nine point dosing series ranging from 10 μM to […] for each compound. 80 nL of the respective dilution of the compounds was added using the Labcyte POD 810 (Labcyte) reaching a final DMSO concentration of 0.2% in cell culture. After an incubation period of 48 h at 37° C. and 5% CO2, cells were fixed in 10% formalin solution for 15 min at room temperature and 20 min in ice-cold methanol, after which they were washed 3× in DPBS. Subsequently, the cells were blocked for 1 h in blocking buffer (PBS+1% BSA and 0.5% Triton X-100) and incubated overnight at 4° C. with the SYM10 antibody diluted 1/2000 in blocking buffer. The cells were washed 3× with washing buffer (PBS+0.1% Triton X-100) and incubated with the Alexa fluor 488 goat anti-rabbit antibody diluted 1/200 in blocking buffer for 1 h at room temperature. Subsequently, they were washed 3× with washing buffer and incubated for 30 min at room temperature with PBS containing a 1/5000 dilution of Hoechst Stain and a 1/5000 dilution of the HCS CellMask Deep Red Stain. After a final wash with PBS, the plates were imaged using the 10×W lens of the Opera® system (Perkin Elmer Life Sciences) using following settings (values in nm):
Low control: minimum level of symmetrically dimethylated Arginines (cells treated with reference compound at 10 μM).
High control: maximum level of symmetrically dimethylated Arginines (DMSO treated cells).
IC50 and pIC50 (−log IC50) values were calculated using the appropriate software.
The pIC50 values in the Table below are averaged values (Co. No. means compound number; n.d. means not determined).

Test [3] deals with T1, PRMT5-MEP50 enzyme. Kind of test: In vitro assay 1a: PRMT5-MEP50 high throughput mass spectrometer assay (SAH formation), 10 nM enzyme. In kind it is biochemical. Particulars: 1 μM SAM, 0.3 μM H2A, 30° C., 60 min, averaged values, read-out: pIC50 Assay 1a (converted).
Text: as §1, §2, §3, §4, §5, §6

A further test has as its target PRMT5 (Homo sapiens, UniProt O14744). Particulars: background statement; cited from earlier work.
The subject of another test is MCL xenograft models. Particulars: multiple MCL xenograft models; cited from earlier work.
The mark [4] stands for this setting: 1.25 nM enzyme, 1 μM SAM, 0.3 μM H2A, 30° C., 120 min, averaged values, read-out: pIC50 Assay 1b (converted).

SMILES strings stand for the structures.

T1 sequence (O14744 whole entry): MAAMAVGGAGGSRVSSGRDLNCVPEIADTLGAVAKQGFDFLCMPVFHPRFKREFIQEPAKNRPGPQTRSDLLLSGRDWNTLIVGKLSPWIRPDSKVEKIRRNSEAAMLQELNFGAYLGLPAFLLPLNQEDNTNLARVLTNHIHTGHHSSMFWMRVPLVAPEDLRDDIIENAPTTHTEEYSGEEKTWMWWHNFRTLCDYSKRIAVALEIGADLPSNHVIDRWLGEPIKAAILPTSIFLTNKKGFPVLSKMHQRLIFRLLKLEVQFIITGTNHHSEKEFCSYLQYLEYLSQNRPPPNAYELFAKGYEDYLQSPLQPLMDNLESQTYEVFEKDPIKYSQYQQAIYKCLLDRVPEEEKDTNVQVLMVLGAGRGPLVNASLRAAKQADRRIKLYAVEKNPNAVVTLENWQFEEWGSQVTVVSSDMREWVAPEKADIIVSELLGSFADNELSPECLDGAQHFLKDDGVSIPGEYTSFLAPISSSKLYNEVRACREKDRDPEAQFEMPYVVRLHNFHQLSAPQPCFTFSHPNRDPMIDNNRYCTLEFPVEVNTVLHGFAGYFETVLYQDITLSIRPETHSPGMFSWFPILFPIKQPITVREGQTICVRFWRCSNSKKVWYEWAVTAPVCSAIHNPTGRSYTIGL
T1 sequence (Q9BQA1 whole entry partner): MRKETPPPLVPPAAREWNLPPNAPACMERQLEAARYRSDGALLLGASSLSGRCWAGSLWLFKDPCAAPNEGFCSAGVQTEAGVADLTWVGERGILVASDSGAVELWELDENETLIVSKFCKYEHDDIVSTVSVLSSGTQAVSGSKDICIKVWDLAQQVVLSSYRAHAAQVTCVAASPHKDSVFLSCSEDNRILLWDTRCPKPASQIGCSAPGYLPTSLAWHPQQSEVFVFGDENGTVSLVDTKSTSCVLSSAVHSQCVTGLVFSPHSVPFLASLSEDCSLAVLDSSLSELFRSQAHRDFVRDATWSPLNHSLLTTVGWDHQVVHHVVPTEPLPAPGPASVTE
Sequence of PRMT5 (O14744 whole entry, species assumed): as the sequence (O14744 whole entry) above
Sequence of PRMT5 (Q9BQA1 whole entry partner, species assumed): as the sequence (Q9BQA1 whole entry partner) above

On to `Cc1cnc2cc(CC[C@H]3C[C@@H](n4ccc5c(N)ncnc54)[C@H](O)[C@@H]3O)c(Cl)cn12` [Compound 2], for which the results for the IC50 (on PRMT5-MEP50 enzyme [1] (setting [4]); in test [2]) were 0.000158 µM and 0.00631 µM, respectively.

Regarding `Cc1cnc2cc(CC[C@H]3C[C@@H](n4cc(Br)c5c(N)ncnc54)[C@H](O)[C@@H]3O)ccn12` [Compound 15], the figures for the IC50 (on PRMT5-MEP50 enzyme [1] (setting [4]); in test [2]) were 0.001 µM and 0.00631 µM, respectively.

Take `Nc1ncnc2c1ccn2[C@@H]1C[C@H](CCc2ccn3c(Br)cnc3c2)[C@@H](O)[C@H]1O` [Compound 14]: the IC50 was 0.00126 µM on PRMT5-MEP50 enzyme [3], 0.00158 µM on PRMT5-MEP50 enzyme [1] (setting [4]) and 0.0126 µM in test [2].

As for `Nc1ncnc2c1ccn2[C@@H]1C[C@H](COc2ccn3ccnc3c2)[C@@H](O)[C@H]1O` [Compound 24], the IC50 is 0.0316 µM on PRMT5-MEP50 enzyme [3] and 1.58 µM in test [2].

With `Cc1cnc2cc(CC[C@H]3C[C@@H](n4ccc5c(N)ncnc54)[C@H](O)[C@@H]3O)ccn12` [Compound 1], the results for the IC50 (on PRMT5-MEP50 enzyme [3]; in test [2]) were 0.000794 µM and 0.00126 µM, respectively.

On to `Nc1ncnc2c1ccn2[C@@H]1C[C@H](CCc2ccn3ccnc3c2)[C@@H](O)[C@H]1O` [Compound 3], for which the IC50 was 0.002 µM at PRMT5-MEP50 enzyme [3] and 0.02 µM in test [2].

`Nc1nc2cc(CC[C@H]3C[C@@H](n4ccc5c(N)ncnc54)[C@H](O)[C@@H]3O)ccc2s1` [Compound 6]: the IC50 at PRMT5-MEP50 enzyme [3] is 0.002 µM; in test [2], 0.0158 µM.

In the case of `Nc1ncnc2c1ccn2[C@@H]1C[C@H](CCc2cc3ncccc3o2)[C@@H](O)[C@H]1O` [Compound 19], the IC50 at PRMT5-MEP50 enzyme [3] was 1.26 µM; in test [2], 5.01 µM.

Turning to `CNc1nc2cc(CC[C@H]3C[C@@H](n4ccc5c(N)ncnc54)[C@H](O)[C@@H]3O)ccc2s1` [Compound 7], the IC50 at PRMT5-MEP50 enzyme [3] is 0.00631 µM; in test [2], 0.0251 µM.

Consider `Nc1ncnc2c1ccn2[C@@H]1C[C@H](CCc2ccn3c(C4CC4)cnc3c2)[C@@H](O)[C@H]1O` [Compound 8], for which the IC50 on PRMT5-MEP50 enzyme [1] (setting [4]) was 0.00251 µM; in test [2] it was 0.0251 µM.

For `Nc1cccc(CC[C@H]2C[C@@H](n3ccc4c(N)ncnc43)[C@H](O)[C@@H]2O)n1` [Compound 28], the IC50 on PRMT5-MEP50 enzyme [1] (setting [4]) was 0.158 µM; in test [2], 0.631 µM.

`CNc1ncnc2c1ccn2[C@@H]1C[C@H](CCc2ccn3c(C)cnc3c2)[C@@H](O)[C@H]1O` [Compound 9]: the IC50 was 0.00398 µM on PRMT5-MEP50 enzyme [1] (setting [4]) and 0.0631 µM in test [2].

For `Cn1cnc2cc(CC[C@H]3C[C@@H](n4ccc5c(N)ncnc54)[C@H](O)[C@@H]3O)ccc21` [Compound 4], the IC50 on PRMT5-MEP50 enzyme [3] was 0.0126 µM; in test [2] it was 0.0316 µM.

For `Nc1ccc(/C=C/[C@H]2C[C@@H](n3ccc4c(N)ncnc43)[C@H](O)[C@@H]2O)cn1` [Compound 30], the values for the IC50 (on PRMT5-MEP50 enzyme [1] (setting [4]); in test [2]) were 0.0631 µM and 0.501 µM, respectively.

As for `Nc1cc(CC[C@H]2C[C@@H](n3ccc4c(N)ncnc43)[C@H](O)[C@@H]2O)ccn1` [Compound 29], the IC50 at PRMT5-MEP50 enzyme [1] (setting [4]) is 0.398 µM; in test [2], 2 µM.

On to `Cc1cnc2c(Cl)c(CC[C@H]3C[C@@H](n4ccc5c(N)ncnc54)[C@H](O)[C@@H]3O)ccn12` [Compound 21], for which the values for the IC50 (on PRMT5-MEP50 enzyme [1] (setting [4]); in test [2]) were 0.00398 µM and 0.0158 µM, respectively.

As for `COc1ncnc2c1ccn2[C@@H]1C[C@H](CCc2ccn3c(C)cnc3c2)[C@@H](O)[C@H]1O` [Compound 10], the IC50 at PRMT5-MEP50 enzyme [1] (setting [4]) is 0.01 µM; in test [2], 0.2 µM.

Turning to `Cc1nc2cc(CC[C@H]3C[C@@H](n4ccc5c(N)ncnc54)[C@H](O)[C@@H]3O)ccn2c1C` [Compound 11], the IC50 is less than 0.0002 µM at PRMT5-MEP50 enzyme [1] and 0.00398 µM in test [2].

Take `Nc1ncnc2c1ccn2[C@@H]1C[C@H](CCc2cc3ncccc3s2)[C@@H](O)[C@H]1O` [Compound 18]: the IC50 on PRMT5-MEP50 enzyme [3] was 0.0398 µM; in test [2], 0.126 µM.

`O=C(NC[C@H](O)CN1CCc2ccccc2C1)c1cc(NC2COC2)ncn1` [EPZ015666]: the PRMT5 inhibitor potency result on PRMT5 was “sub-nanomolar potent”. For the same compound, in the test with MCL xenograft models, the anti-tumour activity result is recorded as “anti-tumour activity in multiple MCL xenograft models”.

Turning to `Cc1cnc2cc(CC[C@H]3C[C@@H](n4ccc5c(N)ncnc54)[C@H](O)[C@@H]3O)c(F)cn12` [Compound 12], the IC50 at PRMT5-MEP50 enzyme [1] (setting [4]) was 0.000316 µM; in test [2], 0.002 µM.

For `Nc1ncnc2c1ccn2[C@@H]1C[C@H](CCc2cc3ncccc3[nH]2)[C@@H](O)[C@H]1O` [Compound 17], the IC50 on PRMT5-MEP50 enzyme [3] was 0.0398 µM; in test [2], 1 µM.

As to `Nc1ncnc2c1ccn2[C@@H]1C[C@H](CCc2ccn3c(Cl)cnc3c2)[C@@H](O)[C@H]1O` [Compound 13], the IC50 on PRMT5-MEP50 enzyme [3] was 0.002 µM; at PRMT5-MEP50 enzyme [1] (setting [4]), 0.00126 µM; in test [2], 0.02 µM.

In the case of `Nc1nc2cc(CC[C@H]3C[C@@H](n4ccc5c(Cl)ncnc54)[C@H](O)[C@@H]3O)ccc2s1` [Compound 5], the IC50 at PRMT5-MEP50 enzyme [3] is 0.0126 µM; in test [2], 3.98 µM.

Regarding `Nc1ccc(CC[C@H]2C[C@@H](n3ccc4c(N)ncnc43)[C@H](O)[C@@H]2O)cn1` [Compound 27], the IC50 against PRMT5-MEP50 enzyme [1] is 0.00501 µM; in test [2], 0.00631 µM.

Consider `Cn1cnc2cc(OC[C@H]3C[C@@H](n4ccc5c(N)ncnc54)[C@H](O)[C@@H]3O)ccc21` [Compound 25], for which the IC50 on PRMT5-MEP50 enzyme [3] is 0.126 µM; in test [2], 2 µM.
